The record followed here is ChEMBL document CHEMBL1131975, “Synthesis and antitumor activity of bithienyl-pyrimidine derivatives with electrostatic binding side chains” (Bioorg Med Chem Lett, 1999).

One may read the IC50 as the midpoint of a concentration-inhibition curve.

The test system of one test is COLO 205. Nature of the test: In vitro cytotoxicity against human colon carcinoma (Colon-205) cells. The test is classed as functional, cell-based.
Another test relates to HeLa. As to the kind of experiment: In vitro cytotoxicity against human cervical carcinoma (Hela) cells at dose 50 ug/mL. It is filed as functional, cell-based.
The subject of a further test is HEp-2. As to the kind of experiment: In vitro cytotoxicity against human larynx carcinoma (Hep-2). The test is classed as functional, cell-based.
Another test relates to KB. As to the kind of experiment: In vitro cytotoxicity against human oral epidermoid carcinoma (KB) cells. The test is classed as functional, cell-based.
The next test has as its system Nucleic Acid. Nature of the test: Evaluated for binding affinity with DNA at a pH of 8 by Fluorimetric method. The test is classed as nucleic-acid assay.

≈ marks a conversion by molar mass, not a printed value.

Turning to `CN(C)CCCOc1nccc(-c2ccc(-c3cccs3)s2)n1`, the IC50 in the test with COLO 205 was determined as 7 µg/mL (≈ 20.3 µM); in the test with HeLa it was 7 µg/mL (≈ 20.3 µM); with HEp-2, 11 µg/mL (≈ 31.8 µM); with KB, 5 µg/mL (≈ 14.5 µM). Also, the K ass with Nucleic Acid is 3e+07 M⁻¹.

With `CN(C)CCCOc1nccc(-c2cccs2)n1`, the IC50 in the test on COLO 205, in the test with HeLa, in the test on HEp-2 and in the test with KB was > 50 µg/mL in each case.

On to `CN(C)CCOc1nccc(-c2ccc(-c3cccs3)s2)n1`, for which the IC50 in the test with COLO 205 is 12 µg/mL (≈ 36.2 µM); in the test with HeLa it was 15 µg/mL (≈ 45.3 µM); in the test with HEp-2, 16 µg/mL (≈ 48.3 µM); in the test with KB it was 17 µg/mL (≈ 51.3 µM). For the same compound, the K ass with Nucleic Acid was found to be 2.1e+07 M⁻¹.

With `CN(C)CCSc1nccc(-c2ccc(-c3cccs3)s2)n1`, the 50% inhibitory concentration (IC50) with COLO 205 is 30 µg/mL (≈ 86.3 µM); with HeLa, 25 µg/mL (≈ 71.9 µM); in the test with HEp-2 it was 50 µg/mL (≈ 144 µM); in the test on KB, 50 µg/mL (≈ 144 µM). Also, the K ass in the test with Nucleic Acid was 6.5e+06 M⁻¹.

With `CN(C)CCOc1nccc(-c2cccs2)n1`, the IC50 in the test with COLO 205, in the test on HeLa, with HEp-2 and in the test on KB was > 50 µg/mL each time.

Take `CN(C)CCSc1nccc(-c2cccs2)n1`: the IC50 in the test on COLO 205, in the test with HeLa, in the test with HEp-2 and with KB was > 50 µg/mL each time.
